Literature values in patent publication US12636263B2, “Carotenoid compound coming from plant and containing natural astaxanthin, preparation method therefor, and composition” (Zhejiang Medicine Co., Ltd. Xinchang Pharmaceutical Factory, priority 2013, dated 2026).

Legend:
[1] = in animal body
[2] = versus natural VE
[3] = in vivo; Johnson and An, Crit. Rev. Biotechnol, 1991

SMILES	bioavailability, higher than that of (3 R, 3 R)′-configuration [1]	oxidizability (antioxidant) relative to natural VE [2]	bioavailability, higher than that of astaxanthin in the form of fatty acid ester [3]
CC1=C(/C=C/C(C)=C/C=C/C(C)=C/C=C/C=C(C)/C=C/C=C(C)/C=C/C2=C(C)C(=O)[C@@H](O)CC2(C)C)C(C)(C)C[C@H](O)C1=O [(3 S, 3′S)-configuration, all-trans (3S, 3′S)-astaxanthin]	15 wt %	–	–
CC1=C(/C=C/C(C)=C/C=C/C(C)=C/C=C/C=C(C)/C=C/C=C(C)/C=C/C2=C(C)C(=O)C(O)CC2(C)C)C(C)(C)CC(O)C1=O (stereo not drawn) [astaxanthin, 3,3′-dihydroxy-4,4′-diketo-β,β′-carotene]	–	1000 times	higher than 15%
